Results published in US20010016593A1, “Element giving rapid release of nicotine for transmucosal administration” (priority 1999, published 2001).

Experiments:
[1] = 10 mg tablets swallowed at two hour intervals; cited from earlier work
[2] = during cigarette smoking; cited from earlier work
[3] = cited from earlier work
[4] = solutions on shaved bellies of cats; cited from earlier work
[5] = in vivo; cited from earlier work
[6] = pH less than 7; cited from earlier work
[7] = cigarette smoking; cited from earlier work
[8] = Element placed in the mouth: subjectively reported nicotine pulse sensation; type: in vivo, humans; conditions: equivalent amounts of nicotine
Source text: The experiments of Examples 1-16 above describe the physiological effects of consuming a measured (calculated) dose of nicotine in the manner of the instant invention. Moreover, the inventor has found a distinct physiological and mental sensation associated with the administration of one or more nicotine doses. This is believed to strongly resemble the physiological and mental sensation associated with inhaling a puff of the smoke of burning tobacco, which it is believed have some pleasurable component or consideration thereof on the part of the recipient. There is believed to be some longer-lasting physiological and/or mental satisfaction, or lack of further nicotine effect desire, after one or more administrations of nicotine, just as is the case for most people after smoking a part or all of one or more cigarettes.
The examples as described above are of necessity reported in a subjective manner.

| Compound | effect of swallowed tablets [1] | arterial levels exceeding venous levels [2] | confusion, memory loss and lack of alertness associated with Alzheimer's disease ([3]; nicotine administration) | local tolerability of the injection ([3]; subcutaneous injection, under some conditions) | discriminative sensitivity and reaction time ([3]; subcutaneous injection, patients with dementia of the Alzheimer type) | rate of percutaneous absorption [4] | mental efficiency, rapid information processing, learning, and vigilance [5] | bucal absorption [6] | time to carry nicotine from the lungs to the brain [7] | efficiency of transmucosal administration compared with smoking [8] |
| --- | --- | --- | --- | --- | --- | --- | --- | --- | --- | --- |
| CN1CCCC1c1cccnc1.O=C(O)C(O)C(O)C(=O)O (stereo not shown) [nicotine tartrate] | only a small effect | – | – | – | – | – | – | – | – | – |
| CN1CCCC1c1cccnc1 (stereo not shown) [nicotine] | – | six to ten | combated the confusion, memory loss and lack of alertness | severe muscular irritation | efficacious in improving discriminative sensitivity and reaction time | much more rapidly than nicotine salts | improve mental efficiency, rapid information processing, learning, and vigilance | very slow | less than 20 seconds | not as efficient as smoking |
